Test results published in ChEMBL document CHEMBL1201862, “PubChem BioAssay data set” (2004).
The source made the active and inactive calls. Unless noted, no cut-off for these calls is given here.

How the values were obtained:
[1] = viability loss in HepG2 liver cells – cell-based, ATP luminescence, cherry-pick, set 6, cytotoxicity control, dose response (AID 1053125); assay type: functional
CAAX prenyl protease 2 [2] = biological target: T1, CAAX prenyl protease 2 (Saccharomyces cerevisiae S288c, UniProt Q03530); assay type: biochemical
T1 sequence (Q03530 whole entry): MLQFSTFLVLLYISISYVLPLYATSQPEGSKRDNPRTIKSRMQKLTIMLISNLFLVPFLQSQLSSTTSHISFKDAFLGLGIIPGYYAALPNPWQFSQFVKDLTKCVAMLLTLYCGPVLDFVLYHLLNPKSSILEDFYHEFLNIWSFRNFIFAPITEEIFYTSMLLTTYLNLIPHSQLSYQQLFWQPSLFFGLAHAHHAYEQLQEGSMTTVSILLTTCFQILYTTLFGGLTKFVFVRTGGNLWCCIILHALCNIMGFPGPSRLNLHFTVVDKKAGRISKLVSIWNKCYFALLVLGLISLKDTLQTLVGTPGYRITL

CAAX prenyl protease 2 [3] = biological target: T2, CAAX prenyl protease 2 (Homo sapiens, UniProt Q9Y256); experiment: inhibition of Ras-converting CAAX protease Rce1 – biochemical, yeast membranes, quenched-peptide fluorescence, cherry-pick, dose response (AID 588849)
T2 sequence (Q9Y256 whole entry): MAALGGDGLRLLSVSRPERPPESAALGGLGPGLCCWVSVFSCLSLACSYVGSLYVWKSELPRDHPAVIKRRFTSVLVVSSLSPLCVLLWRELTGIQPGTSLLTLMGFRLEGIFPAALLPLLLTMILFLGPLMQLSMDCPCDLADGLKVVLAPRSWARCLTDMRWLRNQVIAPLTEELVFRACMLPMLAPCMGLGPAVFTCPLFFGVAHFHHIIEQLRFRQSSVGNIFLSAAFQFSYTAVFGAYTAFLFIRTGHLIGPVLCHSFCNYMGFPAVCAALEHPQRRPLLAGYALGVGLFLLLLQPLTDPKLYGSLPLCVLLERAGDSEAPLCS

cells [4] = details: HEK293
Trypsin = Trypsin (Sus scrofa, UniProt P00761); experiment: trypsin protease activity blockade – biochemical, quenched peptide fluorescence, cherry-pick, selectivity assay for Rce1 protease inhibitor project, dose response (AID 488789)
cells [5] = experiment: cells
Mu-type opioid receptor = Mu-type opioid receptor (Homo sapiens, UniProt P35372); experiment: Late-stage results from the probe development effort to identify antagonists of OPRK1: luminescence-based cell-based dose response OPRM1 counterscreen.; assay type: functional
[6] = biological target: Delta-type opioid receptor (Homo sapiens, UniProt P41143); experiment: Late-stage results from the probe development effort to identify antagonists of OPRK1: fluorescence-based cell-based dose response OPRD1 counterscreen.; assay type: functional
[7] = biological target: E3 ubiquitin-protein ligase UHRF1 (Homo sapiens, UniProt Q96T88); experiment: Counterscreen for inhibitors of 5-meCpG-binding domain protein 2 (MBD2): TRFRET-based biochemical high throughput dose response assay to identify inhibitors of binding of ubiquitin-like with PHD and ring finger domains 1 (UHRF1) to methylated oligonucleotide.
[8] = inhibition of mouse IRAP aminopeptidase activity – biochemical, Leu-AMC fluorescence, cherry-picked samples, set 2, selectivity assay for ERAP1 modulator project, dose response (AID 743340)
[9] = A Cell-Based Confirmatory Screen for Compounds that Inhibit VEEV, TC-83 (7).; assay type: functional
[10] = cytotoxicity in SNB-75 CNS cells – cell-based, CellTiter-Glo ATP luminescence, several timepoints, dry powder, mechanism study for HRAS target identification, late-stage follow-up (AID 720624); assay type: functional
[11] = cytotoxicity in SR immunoblastic lymphoma cells – cell-based, CellTiter-Glo ATP luminescence, 8-48 h, dry powder, mechanism study for HRAS target identification, late-stage follow-up (AID 720608); assay type: functional
[12] = time-course viability loss in HT-29 cells – cell-based, CellTiter-Glo, multiple timepoints, dry powder, HRas target identification project, dose response (AID 720598); assay type: functional
[13] = cytotoxicity in mouse C2C12 myoblasts – cell-based, CellTiter-Glo ATP luminescence, 8/24/48 h, dry powder, cytotoxicity control for HRAS target identification, dose response (AID 720603); assay type: functional
[14] = cytotoxicity in CCRF-CEM lymphoblastic leukemia cells – cell-based, CellTiter-Glo ATP luminescence, 8/24/48 h, dry powder, HRAS target identification, dose response (AID 720607); assay type: functional
[15] = cytotoxicity in U-251 CNS tumor cells – cell-based, Alamar Blue fluorescence, 8/24/48 h, dry powder, HRAS target identification, dose response (AID 720605); assay type: functional
[16] = cytotoxicity in LOX IMVI melanoma cells – cell-based, CellTiter-Glo ATP luminescence, 8/24/48 h, dry powder, HRAS target identification, dose response (AID 720602); assay type: functional
Kallikrein-7 = Kallikrein-7 (Homo sapiens, UniProt P49862); experiment: Fluorescence Intensity-based biochemical primary high throughput dose response assay to identify activators of kallikrein-7 (K7) zymogen.
[17] = biological target: T3, Calpain-2 catalytic subunit (Sus scrofa, UniProt P43367); experiment: m-calpain protease blockers, concentration series – biochemical, fluorogenic peptide substrate, dose response (AID 1420); assay type: functional
T3 sequence (P43367 whole entry): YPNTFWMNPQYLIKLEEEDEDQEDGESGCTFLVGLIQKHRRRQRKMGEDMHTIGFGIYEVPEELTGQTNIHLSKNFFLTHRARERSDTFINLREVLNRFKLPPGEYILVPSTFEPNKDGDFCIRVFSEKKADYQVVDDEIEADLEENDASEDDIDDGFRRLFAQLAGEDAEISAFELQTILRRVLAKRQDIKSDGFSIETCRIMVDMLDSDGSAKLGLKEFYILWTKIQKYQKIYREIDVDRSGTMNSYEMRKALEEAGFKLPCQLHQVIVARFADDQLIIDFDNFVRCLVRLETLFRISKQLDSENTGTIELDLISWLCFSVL

[18] = optical artefact potency, substrate without enzyme – biochemical, fluorescence intensity, triplicate, artefact control for kallikrein-7 zymogen activator project, dose response (AID 720493)
[19] = mouse embryonic fibroblast toxicity – cell-based, plate reader, dry powder, set 2, cytotoxicity control, dose response (AID 652280); assay type: functional; details: NIH3T3
[20] = viability loss in HepG2 cells – cell-based, luminescence, dry powder, set 5, cytotoxicity control, dose response (AID 743185); assay type: functional

Chain of Mu-type opioid receptor (P35372 whole entry): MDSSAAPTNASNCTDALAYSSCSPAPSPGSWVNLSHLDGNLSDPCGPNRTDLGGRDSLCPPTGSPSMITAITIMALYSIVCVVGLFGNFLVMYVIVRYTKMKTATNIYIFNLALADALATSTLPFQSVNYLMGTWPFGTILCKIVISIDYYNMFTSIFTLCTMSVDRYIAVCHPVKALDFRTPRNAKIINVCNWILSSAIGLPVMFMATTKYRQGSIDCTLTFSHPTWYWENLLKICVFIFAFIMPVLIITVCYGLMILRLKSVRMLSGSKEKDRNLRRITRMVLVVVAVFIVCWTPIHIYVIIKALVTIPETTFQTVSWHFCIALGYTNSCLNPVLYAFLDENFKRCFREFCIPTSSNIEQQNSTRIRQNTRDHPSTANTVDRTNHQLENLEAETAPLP
Chain of Kallikrein-7 (P49862 whole entry): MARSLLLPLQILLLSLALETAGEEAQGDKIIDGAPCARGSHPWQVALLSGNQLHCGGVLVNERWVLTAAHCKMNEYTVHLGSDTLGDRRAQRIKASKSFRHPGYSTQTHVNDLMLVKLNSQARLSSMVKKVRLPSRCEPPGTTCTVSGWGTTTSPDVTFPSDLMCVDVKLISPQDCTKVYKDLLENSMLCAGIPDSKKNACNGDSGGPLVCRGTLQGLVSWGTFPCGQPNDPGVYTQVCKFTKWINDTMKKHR
Chain of Trypsin (P00761 whole entry): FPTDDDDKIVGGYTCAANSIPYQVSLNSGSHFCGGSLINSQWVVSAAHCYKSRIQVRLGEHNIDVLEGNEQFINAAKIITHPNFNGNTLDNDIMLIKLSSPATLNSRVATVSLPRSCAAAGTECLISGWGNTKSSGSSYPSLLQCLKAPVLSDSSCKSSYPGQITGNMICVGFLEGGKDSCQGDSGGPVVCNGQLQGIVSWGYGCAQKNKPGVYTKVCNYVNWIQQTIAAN
Chain of E3 ubiquitin-protein ligase UHRF1 (Q96T88 whole entry, the tested form may be a part): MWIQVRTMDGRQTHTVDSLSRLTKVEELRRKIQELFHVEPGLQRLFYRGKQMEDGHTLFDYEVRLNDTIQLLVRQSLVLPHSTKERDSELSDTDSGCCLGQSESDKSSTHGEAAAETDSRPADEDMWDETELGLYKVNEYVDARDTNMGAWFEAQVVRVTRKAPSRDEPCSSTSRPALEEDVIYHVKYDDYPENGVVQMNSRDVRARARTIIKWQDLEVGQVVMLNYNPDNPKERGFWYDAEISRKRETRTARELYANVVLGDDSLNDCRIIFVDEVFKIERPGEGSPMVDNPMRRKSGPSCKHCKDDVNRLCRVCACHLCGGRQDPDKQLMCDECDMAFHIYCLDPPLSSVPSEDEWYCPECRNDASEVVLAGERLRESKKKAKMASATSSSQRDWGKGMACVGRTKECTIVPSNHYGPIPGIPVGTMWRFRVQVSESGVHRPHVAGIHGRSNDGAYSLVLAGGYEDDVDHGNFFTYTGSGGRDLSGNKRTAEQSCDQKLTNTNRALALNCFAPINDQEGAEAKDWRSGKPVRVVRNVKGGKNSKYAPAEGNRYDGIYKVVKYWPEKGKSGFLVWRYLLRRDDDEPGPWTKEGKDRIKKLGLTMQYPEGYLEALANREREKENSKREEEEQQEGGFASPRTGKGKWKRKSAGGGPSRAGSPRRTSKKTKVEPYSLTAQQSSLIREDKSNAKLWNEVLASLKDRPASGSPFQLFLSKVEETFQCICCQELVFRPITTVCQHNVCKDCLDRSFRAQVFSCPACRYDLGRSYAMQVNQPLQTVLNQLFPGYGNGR
Chain of Delta-type opioid receptor (P41143 whole entry, the tested form may be a part): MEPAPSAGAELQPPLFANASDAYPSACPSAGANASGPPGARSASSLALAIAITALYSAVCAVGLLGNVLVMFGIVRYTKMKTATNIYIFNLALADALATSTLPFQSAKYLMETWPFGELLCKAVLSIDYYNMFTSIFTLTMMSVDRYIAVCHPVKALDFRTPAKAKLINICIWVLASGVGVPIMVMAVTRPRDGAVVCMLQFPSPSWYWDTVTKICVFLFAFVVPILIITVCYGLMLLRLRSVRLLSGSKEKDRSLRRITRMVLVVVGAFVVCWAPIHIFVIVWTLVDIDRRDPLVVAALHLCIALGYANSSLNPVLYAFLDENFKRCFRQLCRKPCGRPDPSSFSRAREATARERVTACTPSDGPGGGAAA

COC(=O)C1=CN(CC2CCCO2)C=C(C(=O)OC)C1c1cccc(O)c1 (stereo not drawn)
AC50 [1]: > 52 µM (inactive)
AC50 (CAAX prenyl protease 2 [2]): 10.6 µM (active)
AC50 (CAAX prenyl protease 2 [3]): 2.08 µM (active)
AC50 (cells [4]): > 52 µM (inactive)
AC50 (Trypsin): 9.88 µM (active)
AC50 (cells [5]): 11.1 µM (active)

COC(=O)c1cc(Br)cnc1N1CCC(NC2CCCCC2)CC1
IC50 (Mu-type opioid receptor): 1 µM (active)
IC50 [6]: 19 µM (inactive)

CN(C)C(=O)c1cccc(-c2cnc3c(NC=O)cc(-c4ccccc4N(C)C)cn23)c1
IC50 [7]: > 43.8 µM (inactive)

C[C@H]1CN([C@@H](C)CO)C(=O)c2cccc(NC(=O)Nc3ccc(C(F)(F)F)cc3)c2O[C@@H]1CN(C)CC1CC1
AC50 [8]: 16 µM (active)

O=c1c2cc(F)c(F)cc2nc(CN2CCNCC2)n1-c1ccccc1
IC50 [9]: 22.4 µM (active)

COC(=O)c1ccc([C@@H]2c3[nH]c4ccccc4c3C[C@@H](C(=O)OC)N2C(=O)CCl)cc1
AC50 [10]: 0.374 µM (active)
AC50 [11]: 0.0492 µM (active)
AC50 [12]: 0.235 µM (active)
AC50 [13]: 0.233 µM (active)
AC50 [14]: 0.105 µM (active)
AC50 [15]: 0.0342 µM (active)
AC50 [16]: 0.0709 µM (active)

COc1ccc2c(c1)C(=O)CC(O)(C(F)F)O2 (stereo not drawn)
EC50 (Kallikrein-7): 16.5 µM (inactive)
IC50 [17]: 8.34 µM (not active)
EC50 [18]: > 7.73 µM (active)

Cc1cccc(-c2ccc([C@H]3[C@H](CO)N4CCCCN(CCC(F)(F)F)C[C@@H]34)cc2)c1
AC50 [19]: 3.67 µM (active)

O=C(N/N=C/c1c[nH]c2ccccc12)c1cccc(O)c1
AC50 [20]: > 52 µM (inactive)
